Assay results: patent publication US6671540B1, “Methods and systems for detecting abnormal tissue using spectroscopic techniques” (priority 1990, dated 2003)

Legend:
hippocampal slice = experiment: Stimulation-evoked afterdischarge activity in hippocampal slice (field recording and intrinsic optical signal); format: cell-based, rat
Procedure: Sprague-Dawley rats (male and female; 25 to 35 days old) were prepared as described in Aghajanian, A. K. and Rasmussen, K., Synapse 31:331, 1989; and Buckmaster, P. S., Strowbridge, B. W., Schwartzdroin, P. A., J. Neurophysiol. 70:1281, 1993. In most hippocampal slice experiments, simultaneous extracellular field electrode recordings were obtained from CA1 and CA3 areas. For stimulation-evoked afterdischarge (13 slices, 8 animals), the concentration of Mg^2+ in the bathing medium was reduced to 0.9 mM. A bipolar tungsten stimulating electrode was placed on the Schaffer collaterals to evoke synaptically driven field responses in CA1; stimuli consisted to 100 to 300-μs-duration pulses at an intensity of four times population-spike threshold. Afterdischarges were evoked by a 2-s train of such stimuli delivered at 60 Hz. […] In all treatments, perfusion with furosemide-containing medium was begun after a consistent level of bursting had been established.
For imaging of intrinsic optical signals, the tissue was illuminated with a beam of white light (tungsten filament light and lens system; Dedotec USA, Lodi, N.J.) directed through the microscope condenser. The light was controlled and regulated (power supply: Lambda Electronics, Melville, N.Y.) to minimize fluctuations and filtered (695 nm long-pass) so that the slice was transilluminated with long wavelengths (red). Image frames were acquired with a charge-coupled device camera (Dage-MTI) at 30 Hz and were digitized at 8 bits with a spatial resolution of 512 by 480 pixels by means of an Imaging Technology Series 151 imaging system; gains and offsets of the camera-control box and the analog-to-digital board were adjusted to optimize the sensitivity of the system. Imaging hardware was controlled by a 486-PC-compatible computer running software written by D. Hochman and developed with commercially available software tools (Microsoft's C/C++ Compiler and Imaging Technology's ITEX library). To increase signal-to-noise ratio, an averaged image was composed from 16 individual image-frames, integrated over 0.5 s and averaged together. An experimental series typically involved the continuous acquisition of a series of averaged images over a several minute time period; at least 10 of these averaged images were acquired as control images before stimulation. Pseudo-colored images were calculated by subtracting the first control image from subsequently acquired images and assigned a color lookup table to the pixel values. For these images, usually a linear low-pass filter was used to remove high-frequency noise and a linear-histogram stretch was used to map the pixel values over the dynamic range of the system. All operations on these images were linear so that quantitative information was preserved.

rat glioma [1] = details: in vivo
Description: This example illustrates a series of experiments using a rat glioma model through an intact skull to investigate whether the inventive method and inventive device could function in to image tumor tissue through an intact skull and through intact skin prior to or after surgery. Far red wavelengths of emr are known to penetrate through bone and skin. Imaging of tumor tissue was attempted through the intact skull of the rat. The extent of tumor identified was not as accurate as with the cortex exposed; however, the area lying beneath the skull with tumor tissue was easily identified and localized, and continued to concentrate dye after several minutes. […] One minute after dye injection, the dye had been cleared from the normal brain and the only residual signal remained in tumor tissue and the sagital/traverse sinuses.
FIG. 5A is a gray scale image of the cranial surface of a rat. The sagital suture runs down the center of the image. Tumor cells had been injected into the left side some days earlier so that this animal had developed a glioma on t he left hemisphere of its brain. The right hemisphere was normal. Box 1 lays over the suspect region of brain tumor, and Box 2 lays over normal tissue. FIG. 5B is a difference image one second after indocyanine green dye had been intraveneously injected into the animal. The region containing tumor tissue becomes immediately visible through the intact cranium. […] The concentration of dye in the center of this difference image is dye circulating in the sagital sinus.
The optical changes were determined by the average optical change in a box placed directly over the tumor and over the normal hemisphere. The increase in absorption is a function of the concentration of dye in the tissue at a particular time. The graph labeled “extracranial tumor” is a plot of the dynamics of the absorption changes within box 1 from FIG. 5A. The graph labeled “extracranial: normal” is a plot of the dynamics of the absorption change within box 2 from FIG. 5A.
The following imaging apparatus was employed in Examples 5 and 6. […]

[2] = tested on: low grade CNS tumor (astrocytoma, grade 1); experiment: Intraoperative optical imaging of dye uptake and clearance, low grade human CNS tumor; format: in vivo; details: 1 mg/kg iv bolus
Description: (§1) The procedure used in Examples 1-4 was as follows. The area of interest was evenly illuminated by a fiber optic light source with the radiation passing through a beam splitter, controlled by a D.C. regulated power supply (Lambda, Inc.) and passed through a 695 nm longpass filter. Images were acquired with a CCD camera (COHU 6500) fitted to the operating microscope with a specially modified cineadaptor. The cortex was stabilized with a glass footplate. Images were acquired at 30 Hz and digitized at 8 bits (512×480 pixels, using an Imaging Technology, Inc. Series 151 system, Woburn, Mass.). Geometrical transformations were applied to images to compensate for small amounts of patient motion (Wohlberg, Digital Imaging Warping, IEEE Computer Society: Los Alamitos, Calif., 1988). […] Raw data (i.e., no digital enhancement) were used for determining the average optical change in specified regions (average size box was 30×30 pixels or 150-250 um^2). For pseudocolor images, a linear low pass filter removed high frequency noise and linear histogram transformations were applied. Noise was defined as the standard deviation of fluctuations it! sequentially acquired control images as 0.003-0.009.
An averaged control image was obtained of the particular cortical surface area of interest. FIG. 1A is a gray-scale image of the area of interest prior to dye administration. […]

[3] = tested on: highly malignant CNS tumor (glioblastoma; astrocytoma, grade IV); experiment: Intraoperative optical imaging of dye uptake and clearance, malignant human CNS tumor; format: in vivo; details: iv injection; 1 minute and 10 minutes after dye injection
Description: as §1
This example illustrates optical detection of a highly malignant CNS tumor (glioblastoma; astrocytoma, grade IV). […]

rat glioma [4] = details: female, F-344, rat, in vivo
Description: The rat glioma model is a standard predictive model and was used to delineate dye uptake, clearance and overall parameters of optical imaging that result in the best images. The rat glioma model consistently produces reproducible tumors for imaging studies in which the tumor is resected under an operating microscope. A disadvantage of this model is the more sarcoma-like appearance of the tumor and a lesser degree of vascularity compared to human gliomas.
Briefly, the rat glioma model uses an ethylnitrosourea-induced F-344 rat tumor line developed from a clonal population of a spinal malignant astrocytoma. […] The glioma cells were maintained in Weymouth's medium supplemented with 10% fetal calf serum. Viable cells ([…]) were trypsinized from a monolayer culture and implanted stereotaxically into the right cerebral hemisphere of 30 syngeneic female rats, each weighing 140-160 g. The stereotaxic coordinates for right frontal lobe implantation were 4.5 mm anterior to the frontal zero plane, 3 mm right from the midline and 6 mm deep. The rats were anesthetized for implantation. The heads were shaved and scalps opened, and a 1 mm burr hole made at the appropriate coordinates. The cells were injected through a 27 gauge needle, the needle left in place for 30 sec post injection and the hole was covered with bone wax. The scalp was sutured and the animals observed for 3-4 hrs until they returned to normal activity and feeding. The animals were used 10-14 days after tumor implantation. In this model, animals begin to show clinical symptoms from the tumor by 16-19 days, such as decreased activity and feeding, hemiparesis and eventually succumb between 19-27 days from mass effects due to tumor expansion.
Fourteen animals underwent the complete study, including imaging before and after resection of the tumor. The animals were anesthetized with 2% isoflurane, and the femoral vein cannulated for administration of the dye. Anesthesia was maintained with a—chloralose (50 mg/kg administered ip) and urethane (160 mg/kg administered ip). The animals were placed in a stereotaxic holder. Imaging studies were then carried out before or after removal of the cranium. The tumor typically occupied the anterior one half to two thirds of the right hemisphere exposure. The compressed brain without any tumor infiltration was defined as the tumor surround to separate it from the normal hemisphere on the contralateral side.
The following imaging apparatus was employed in Examples 5 and 6. Light was from a tungsten-halogen bulb regulated by a D.C. power supply, passed through a longpass filter (690 nm), and through a right angled prism reflected through a 50 or 100 mm objective lens onto the cortical surface. […]

[5] = 2.5 mM, 20 minutes of perfusion

peak optical change, normal brain (rat glioma [1]) [%] | peak optical change, tumor (rat glioma [1]) [%] | duration of prolonged increase in optical signal in the tumor (rat glioma [4]) [min] | dye uptake rise time, normal (rat glioma [4]) [%/sec] | onset of optical signal change after dye injection (rat glioma [4]) [s] | peak percentage difference change, tumor (rat glioma [4]) [%] | SMILES | electrical afterdischarge activity (hippocampal slice; [5]) | stimulation-evoked optical changes (hippocampal slice; [5]) | reversibility after washout (hippocampal slice; 45 minutes of perfusion with normal bathing medium) | epileptiform activity and intrinsic optical signal during electrical stimulation (hippocampal slice; following treatment with furosemide) | dye clearance, normal vs tumor region (rat glioma [1]; iv) | entry of dye into low grade tumor tissue vs normal brain tissue [2] | retention of dye in malignant tissue [3]
– | – | – | – | – | – | NS(=O)(=O)c1cc(C(=O)O)c(NCc2ccco2)cc1Cl [furosemide] | blocked | blocked | restoration of the initial response pattern | blocks the epileptiform activity and the intrinsic optical signal | – | – | –
7.8±2.3 | 13.1±3.9 | > 2 | 2.4 | 2 to 3 | 40.5±9.6 | CC1(C)C(/C=C/C=C/C=C/C=C2\N(CCCCS(=O)(=O)O)c3ccc4ccccc4c3C2(C)C)=[N+](CCCCS(=O)(=O)[O-])c2ccc3ccccc3c21 [indocyanine green] | – | – | – | – | the normal tissue has cleared the dye, but dye is still retained in the tumor region | enters low grade tumor tissue faster than normal brain tissue | retained significantly longer in malignant tissue than in benign tumor tissue
